Results published in patent publication US20220031680A1, “Donecopride As Neuroprotective Agent In the Treatment of Neurodegenerative Diseases” (priority 2018, published 2022).

What was measured:
[1] = system: C57Bl6/J mice challenged with an intracerebroventricular injection of Aβ1-42 oligomers (AβO); assay: Morris water maze (learning and long-term memory) in mice icv injected with AβO; type: in vivo, mouse
Experimental: (§1) Briefly, 144 C57Bl6/J male mice (3 months of age) were received and housed (4 to 5 per cage) in quarantine during 7 days, or longer. Test items were dosed per os (through oral gavage) once daily at different concentrations from day −1 to day +17.
From days +3 to days +14, learning capacities and long-term memory were investigated in the MWM assay.
(§2) The different experimental groups are defined as follow: • GROUP A (vehicle CTRL): po vehicle AND icv injection of vehicle (n=12) • GROUP B (APO CTRL): po vehicle AND icv injection of AβO (n=12) • GROUP C (positive CTRL): po Donepezil subchronic AND icv injection of AβO (n=12) • GROUP D (Donecopride CTRL): po Donecopride (9 mg/kg) AND icv injection of vehicle (n=12) • GROUP E (Flucopride CTRL): po Flucopride (9 mg/kg) AND icv injection of vehicle (n=12) • GROUP F (Donecopride Treated): po Donecopride (1 mg/kg) AND icv injection of AβO (n=12) • GROUP G (Donecopride Treated): po Donecopride (3 mg/kg) AND icv injection of AβO (n=12) • GROUP H (Donecopride Treated): po Donecopride (9 mg/kg) AND icv injection of AβO (n=12) • GROUP I (Fluocopride Treated): po Flucopride (1 mg/kg) AND icv injection of AβO (n=12) • GROUP J (Flucopride Treated): po Flucopride (3 mg/kg) AND icv injection of AβO (n=12) • GROUP K (Flucopride Treated): po Flucopride (9 mg/kg) AND icv injection of AβO (n=12) • GROUP L (positive CTRL): ip Donepezil acute on test days AND icv injection of AβO (n=12)
(§3) For per os dosing, Donecopride and Flucopride were formulated by solubilization in 0.9% NaCl. Compound dosing (total volume of 200 μL) started one day before induction of the disease (through icv injection of AβO) and was done for 19 consecutive days.
(§4) Single intra-cerebroventricular injection of 144 mice with vehicle or APO (max. 24 mice per day, all mice randomized): under anesthesia (ip injection of a mixture of ketamine/xylasine at a dose of 110 and 15 mg/kg, respectively) AβO (1 μL), or vehicle (1 μL) were injected into the right lateral ventricle. Injections were made using 10 μL Hamilton micro syringes fitted with a 26-gauge needle. The procedure was terminated by a subcutaneous injection of metacam (analgesia) at a dose of 5 mg/kg. Animals were then placed individually in their home-cage and the cage was placed in a heated cabinet until the animal has fully recovered. Animals were carefully monitored to control recovery after anesthesia.
(§5) Preparation of APO: Aβ1-42 was obtained from Bachem (ref H1368) (batch number: 1052301). The preparation of stable Aβ1-42 oligomers was performed as described in Garcia et al. (2010) J. Neurosci. 30:7516-7527. The oligomeric preparation (identified as Batch #2016-14) contained a mixture of stable trimers and tetramers of Aβ1-42, as well as monomeric forms of the peptide. All oligomer preparations used were previously characterized in terms of oligomer composition and in vitro neurotoxicity.
6 independent trials involving each 24 mice (i.e. 2 mice from each experimental group) for a total of 144 mice at day +4.
Detailed protocol: Habituation trials (visible platform)—The Morris water maze (MWM) was performed as described in Garcia et al. (2010) J. Neurosci. 30:7516-7527. The experimental apparatus consists of a circular water tank (diameter=100 cm; height=50 cm) containing water at 21° C. to a depth of 25 cm and rendered opaque to block the view past the water surface by adding an aqueous acrylic emulsion. A platform (diameter=10 cm) is used and placed at the midpoint of a quadrant. The pool is located in a test room, homogeneously illuminated at 100 lux. The swimming path of the animals is recorded using a video tracking system. Mice are brought to the experimental room for at least 30 min prior to testing, to enable acclimation to the experimental room conditions. Navigation to a visible platform is carried out before place-navigation, to evaluate visual and motor abilities of all mice. […]

[2] = system: C57Bl6/J mice challenged with an intracerebroventricular injection of Aβ1-42 oligomers (AβO); assay: Novel Object Recognition assay in mice icv injected with AβO; type: in vivo, mouse; details: for mean discrimination index (NOR): day +16; for AβO-induced impairment of recognition memory (NOR): at all doses (1, 3, 9 mg/kg/day po)
Experimental: as §1
At days +15/+16, recognition memory was investigated using the Novel Object recognition test (NOR).
as §2, §3, §4, §5
6 independent trials involving each 24 mice (i.e. 2 mice from each experimental group) for a total of 144 mice at day +4—Behavioral tests were performed 1 h after dosing.
Detailed protocol: One day before the cognitive test (i.e. at day +15), mice are habituated during a 10 minutes' trial during which they are placed in an empty open field. The day of the cognitive test (i.e. day +16), animals are placed in the same open field and are allowed to explore freely two identical objects for a trial of five minutes (acquisition trial). Then the animals are returned in their home-cage for an inter-trial time of five minutes. During the retention trial, animals are allowed to explore two different objects: one familiar and one novel object. During this time, the experimenter, blind to the treatment, record the time the mouse is actively exploring each object. All trials are video recorded (Smart v3.0 software, Bioseb). A discrimination index is then generated: Discrimination index=(time exploring novel object−time exploring familiar object)/total exploration time. […]

[3] = 3 mg/kg/day po, icv AβO, day 5 of training
[4] = 9 mg/kg/day po, icv vehicle, day 5 of training
[5] = at all doses (1, 3, 9 mg/kg/day po), icv AβO
[6] = ip acute on test day, icv AβO (Group L)
[7] = po sub-chronic, icv AβO (Group C)

Row | Compound | mean crossing number (MWM probe trial) ([1]; 3 mg/kg/day po, icv AβO) | mean escape latency (MWM learning trials) [1, 3] | mean crossing number (MWM probe trial) ([1]; 9 mg/kg/day po, icv vehicle) | mean latency to target (MWM probe trial) ([1]; 9 mg/kg/day po, icv vehicle) | mean escape latency (MWM learning trials) [1, 4] | AβO-induced impairment of long-term memory evaluated using the number of crossings [1, 5] | time spent in target vs opposite quadrant (MWM probe trial) ([1]; icv AβO) | mean discrimination index (NOR) ([2]; 9 mg/kg/day po, icv vehicle) | AβO-induced impairment of recognition memory (NOR) ([2]; icv AβO) | also measured
1 | COc1cc(N)c(Cl)cc1C(=O)CCC1CCN(CC2CCCCC2)CC1 [Donecopride] | 5.1±0.6 | 12.7 ± 1.5 s | 4.6±0.5 | 7.2 ± 1.5 s | 13.0 ± 1.7 s | inhibition | did not improve | 0.29±0.04 | dose-dependent inhibition | mean latency to target (MWM probe trial) ([1]; 1 mg/kg/day po, icv AβO): 9.3 ± 1.4 s; AβO-induced impairment of long-term memory evaluated using the latency to target [1, 5]: inhibition; mean discrimination index (NOR) ([2]; 9 mg/kg/day po, icv AβO): 0.43±0.06
2 | COc1cc2c(cc1OC)C(=O)C(CC1CCN(Cc3ccccc3)CC1)C2 (centres unmarked) [Donepezil, reference compound] |  |  |  |  |  |  | failed to improve |  |  | mean crossing number (MWM probe trial) [1, 6]: 3.8±0.4; mean latency to target (MWM probe trial) [1, 6]: 13.3 ± 2.3 s; mean escape latency (MWM learning trials) ([1]; ip acute on test day, icv AβO (Group L), day 5 of training): 13.4 ± 1.5 s; mean crossing number (MWM probe trial) [1, 7]: 3.7±0.4; mean latency to target (MWM probe trial) [1, 7]: 14.6 ± 2.7 s; mean escape latency (MWM learning trials) ([1]; po sub-chronic, icv AβO (Group C), after five days of training (day 5)): 14.7 ± 1.9 s; mean discrimination index (NOR) [2, 6]: 0.30±0.07; mean discrimination index (NOR) [2, 7]: 0.29±0.09
3 | COc1cc(N)c(F)cc1C(=O)CCC1CCN(CC2CCCCC2)CC1 [Flucopride] | 4.1±0.6 | 12.5 ± 1.1 s | 4.6±0.7 | 12.0 ± 2.1 s | 16.3 ± 2.0 s | inhibition | did not improve | 0.36±0.06 | dose-dependent inhibition (bell-shaped curve) | mean escape latency (MWM learning trials) ([1]; 1 mg/kg/day po, icv AβO, day 5 of training): 13.1 ± 1.1 s; improvement of learning capacities (MWM learning trials) ([1]; 9 mg/kg/day po, icv AβO): had no effect; mean latency to target (MWM probe trial) ([1]; 9 mg/kg/day po, icv AβO): 10.7 ± 1.9 s; mean escape latency (MWM learning trials) ([1]; 9 mg/kg/day po, icv vehicle, day 4 of training): 14.2 ± 1.9 s; mean discrimination index (NOR) ([2]; 3 mg/kg/day po, icv AβO): 0.46±0.05
